Entries after “also recorded” stand apart in the source; their conditions may differ.
Key:
[1] = target: Glucose-6-phosphate dehydrogenase (G6PD) (Homo sapiens, UniProt P11413); settings: cited from earlier work
[2] = Depletion and reconstitution of metabolites in dogs treated with HD DHEA; type: in vivo; settings: for ubiquinone levels with supplementation in DHEA-treated animals: supplementation with ubiquinone and tocotrienols
Experimental: FIG. 4. […] For IPA quantitation, preliminary in vitro studies were performed in which DHEA-treated and control HT-29SF cells were exposed to [^3H]-mevalonic acid (saponified; data not shown). […] For ease of presentation, pretreatment values for all 3 determinations (BH4, IPA and ubiquinone) were given a value of 1, with treatment values presented as their respective fraction thereof. Male and female dogs had blood or other specimens drawn pretreatment, and then following 90 days of 10 mg/kg DHEA±reconstitution protocol.
FIG. 6. […] Fifteen ml blood samples were drawn and the buffy coat was isolated by low speed centrifugation in the standard manner. […] AMP, ADP and ATP were quantitated. […] For ease of presentation, pretreatment values are presented with a value of 1, with treatment values presented as their respective fraction thereof.
FIG. 8. […] Ten mg of intestinal mucosa was analyzed for each animal. […] Results are presented as percentage of values in pretreatment dogs, mean±SEM.
FIG. 10. […] 24 hour urine was collected from neutered male and female animals in amber glass containment vessels. To 100 ml of urine was added 1 ml of concentrated HCL as preservative. […] These same dogs were then administered DHEA (10 mg/kg)±the reconstitution regimen which included the monoamine mix described above. This treatment continued for 90 days, at which time further urine specimens were collected and assayed for norepinephrine. The data are reported as the mean±SEM.
FIG. 11. […] Before treatment, 10-15 ml blood samples were taken from male and female neutered dogs, and plasma was collected by low speed centrifugation by the standard method.

[3] = test system: human colonic carcinoma HT29SF cells; assay: Flow cytometric cell cycle analysis of HT-29SF cells exposed to DHEA; type: cell-based
[4] = Side effects of HD DHEA and their prevention by reconstitution; type: in vivo, dogs; settings: for susceptibility to infections under DHEA with concurrent reconstitution: dogs and cats; for susceptibility to infections under DHEA with concurrent reconstitution / fluid retention symptoms under DHEA with concurrent reconstitution: concurrent BH4, potassium nitrate and IPA; for fluid retention symptoms under DHEA with concurrent reconstitution: dogs; for DHEA-induced ocular (ophthalmic) inflammation on reconstitution: dogs administered DHEA, IPA (and BH4) added
Excerpt: Table 1. Physical symptoms associated with HD DHEA-induced Nitric Oxide (NO) depletion.

spontaneous cancers = assay: HD DHEA in cancer stricken dogs (spontaneous cancers, Table 3); type: in vivo
Excerpt: In preliminary experiments we exposed human colonic carcinoma HT29SF cells to various doses of DHEA and assessed the effects of such treatment upon cell cycle kinetics.
Table 3. Decreased tumor volume, increased longevity (compared to historical controls), and improved quality of life in dogs with spontaneous cancers.

[5] = test system: 1,2-dimethylhydrazine-induced colonic tumors, which metastasize to the liver; assay: Carcinogen (1,2-dimethylhydrazine)-induced tumors in dogs ± HD DHEA (Table 2); type: in vivo
Excerpt: Table 2. Decreased tumor volume and increased longevity in dogs administered HD DHEA to treat […] tumors. […] Organotropic carcinogens produce tumors in specific organs. Dimethylhydrazine produces exclusively colonic tumors, which metastasize to the liver. In this series of experiments 13 dogs were exposed to DMH only, and 13 were exposed to DMH followed by treatment with HD DHEA.

statin-treated cells = settings: cited from earlier work
[6] = tissues of animals administered HD DHEA
[7] = tissues of dogs administered HD DHEA
[8] = DMH followed by HD DHEA, Student's t test

Glucose-6-phosphate dehydrogenase (G6PD), sequence (P11413 whole entry, species assumed): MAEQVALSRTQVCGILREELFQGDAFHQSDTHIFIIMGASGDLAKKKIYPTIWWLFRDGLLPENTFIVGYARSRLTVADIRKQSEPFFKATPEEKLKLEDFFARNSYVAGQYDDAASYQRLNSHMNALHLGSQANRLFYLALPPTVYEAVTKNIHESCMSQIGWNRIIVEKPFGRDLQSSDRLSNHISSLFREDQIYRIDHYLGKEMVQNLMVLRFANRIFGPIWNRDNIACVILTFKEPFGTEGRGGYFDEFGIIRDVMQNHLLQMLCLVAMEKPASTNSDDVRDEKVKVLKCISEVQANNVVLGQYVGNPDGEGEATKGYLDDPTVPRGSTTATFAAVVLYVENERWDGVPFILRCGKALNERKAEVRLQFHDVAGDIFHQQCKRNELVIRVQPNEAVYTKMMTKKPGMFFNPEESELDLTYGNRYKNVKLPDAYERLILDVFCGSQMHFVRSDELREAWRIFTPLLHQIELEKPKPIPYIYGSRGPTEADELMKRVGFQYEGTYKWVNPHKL

C[C@]12C=CC(=O)C=C1CC[C@@H]1[C@@H]2C(=O)C[C@@]2(C)[C@H]1CC[C@]2(O)C(=O)CO [prednisone]
G6PD inhibition [1]: does not inhibit G6PD

COC1=C(OC)C(=O)C(C/C=C(\C)CC/C=C(\C)CC/C=C(\C)CC/C=C(\C)CC/C=C(\C)CC/C=C(\C)CC/C=C(\C)CC/C=C(\C)CC/C=C(\C)CCC=C(C)C)=C(C)C1=O [ubiquinone]
combination of ubiquinone and tocotrienols vs ubiquinone alone, retaining ubiquinone levels ([2]; DHEA-treated animals): more effective
ubiquinone levels with supplementation in DHEA-treated animals [2]: maintains normal or near normal ubiquinone levels

C[C@@](O)(CCO)CC(=O)O [mevalonic acid]
reversal of DHEA-induced cell cycle arrest ([3]; addition of mevalonic acid and nucleosides to DHEA-treated HT29SF cells): partly or completely reversed

tocotrienols
combination of ubiquinone and tocotrienols vs ubiquinone alone, retaining ubiquinone levels ([2]; DHEA-treated animals): more effective
ubiquinone levels with supplementation in DHEA-treated animals [2]: maintains normal or near normal ubiquinone levels

C[C@]12CC[C@H](O)CC1=CC[C@@H]1[C@@H]2CC[C@]2(C)C(=O)CC[C@@H]12 [DHEA, Dehydroepiandrosterone]
G6PD inhibition [1]: potent uncompetitive inhibitor of G6PD
side effects observed with HD DHEA ([4]; HD DHEA without reconstitution): motor incoordination sometimes occurs; also recorded: susceptibility to infections, particularly in the ear and eye; also recorded: induction of vasoconstriction; also recorded: Fluid retention; also recorded: auto-inflammatory-like disorder
NO level during HD DHEA ([2]; animals administered HD DHEA): depleted
total pools of isopentenylated tRNA ([2]; buffy coat lymphocytes of dogs treated with DHEA, HPLC): depleted
ubiquinone levels, continuous DHEA treatment ([2]; continuous treatment at doses capable of inducing HD DHEA): decline; also recorded: depleted
one carbon pool products (e.g., AMP, ADP, ATP; purines, pyrimidines, S-adenosylmethionine) during HD DHEA ([2]; dogs administered HD DHEA): profoundly depleted
ubiquinone levels, short term DHEA exposure ([2]; over the short term): increased
BH4 level during HD DHEA [2, 6]: depleted
IPA level during HD DHEA [2, 6]: becomes depleted
important monoamines during HD DHEA [2, 7]: depleted
phenylalanine levels during HD DHEA [2, 7]: increased
effect on cell cycle kinetics ([3]; HT29SF cells exposed to various doses of DHEA): arrested cells in the G1 phase of the cell cycle
longevity (spontaneous cancers; HD DHEA): significant improvements in longevity
tumor volume (spontaneous cancers; HD DHEA): decreases in tumor volume
quality of life (spontaneous cancers; HD DHEA supplemented with specific metabolites): increases in quality of life
number of tumors induced, control vs HD DHEA-treated dogs ([5]; 13 dogs DMH only vs 13 DMH followed by HD DHEA): not statistically different
number and total weight of hepatic metastases, control vs HD DHEA-treated dogs [5, 8]: statistically significant
weight of the individual colonic tumors, control vs HD DHEA-treated dogs [5, 8]: statistically significant

O=[N+]([O-])[O-].[K+] [potassium nitrate]
symptoms associated with NO depletion ([4]; animals undergoing HD DHEA plus potassium nitrate): eliminating
susceptibility to infections under DHEA with concurrent reconstitution [4]: eliminated
fluid retention symptoms under DHEA with concurrent reconstitution [4]: eliminated
replenishment of NO in animals undergoing HD DHEA ([2]; potassium nitrate as NO donor): can replenish NO

CC(C)=CCNc1ncnc2nc[nH]c12 [Isopentenyladenine]
activity in restoring DNA synthesis relative to mevalonate (statin-treated cells): approximately 100 fold

CC(O)C(O)C1CNc2nc(N)[nH]c(=O)c2N1 (stereo not shown) [BH4, tetrahydrobiotperin]
DHEA-induced ocular (ophthalmic) inflammation on reconstitution [4]: prevents
susceptibility to infections under DHEA with concurrent reconstitution [4]: eliminated
fluid retention symptoms under DHEA with concurrent reconstitution [4]: eliminated
dopamine, norepinephrine and epinephrine levels on replenishment of BH4 ([2]; DHEA-treated animals): restoring normal or near normal

CC(C)=CCNc1ncnc2c1ncn2[C@@H]1O[C@H](CO)[C@@H](O)[C@H]1O [IPA, N6-Δ2-isopentenyladenosine]
DHEA-induced ocular (ophthalmic) inflammation on reconstitution [4]: prevents; also recorded: completely prevent
susceptibility to infections under DHEA with concurrent reconstitution [4]: eliminated
fluid retention symptoms under DHEA with concurrent reconstitution [4]: eliminated

N[C@@H](Cc1ccc(O)c(O)c1)C(=O)O [L-DOPA]
emesis ([4]; dog, in vivo): can lead to emesis in some dogs

Source: patent US20170007619A1, “High Dose Dehydroepiandrosterone as Anticancer Treatment With Multi-faceted Reconstitution of Otherwise Depleted Metabolites” (priority 2015, published 2017)
